Patent US11447504B2, “Macrocyclic chlorine substituted indole derivatives” (Bayer Aktiengesellschaft, priority 2017, dated 2022)
pIC50: −log10 of the molar value. Structures can show the parent of a compound that is named as a salt. Where two headings read alike, the source gives them in different places.

Tests used:
SUDHL5 = assay: Antiproliferation assay 7, SUDHL5; assay type: cell-based; conditions: SUDHL5 cells, CellTiter-Glo, read-out: Antiproli SUDHL5 IC50 (median)
Outline: (§1)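 Anti-proliferative effect is determined from CellTiter-Glo signal after a 72-hour incubation at 37° C, with a time-zero reference plate measured in parallel.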

BCL-2 = BCL-2 (Homo sapiens (Human), UniProt P10415); assay: Protein-protein interaction assay BCL-2/Bad BH3 peptide (BCL-2 Assay, TR-FRET); assay type: binding; conditions: read-out: BCL-2 Assay IC50 (median)
Sequence of BCL-2 (P10415 other isoform, or with tags, fused parts or gaps): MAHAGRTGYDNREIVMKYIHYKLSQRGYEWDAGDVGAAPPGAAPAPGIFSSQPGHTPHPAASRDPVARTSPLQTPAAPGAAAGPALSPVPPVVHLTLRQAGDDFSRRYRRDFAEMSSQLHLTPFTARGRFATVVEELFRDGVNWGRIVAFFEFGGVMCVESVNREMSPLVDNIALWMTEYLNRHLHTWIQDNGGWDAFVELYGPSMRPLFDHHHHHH
Procedure: The dose-dependent inhibition by the compounds described in this invention of the interaction between BCL-2 and the BH3 domain of Bad (both human) was determined using a steady state binding competition assay with time-resolved fluorescence energy transfer (TR-FRET) readout.
(§2) For that, 100-fold concentrated DMSO solutions were prepared by serial dilutions (1:3.4) of a 2 mM stock solution in a clear, 384-well microtiter plate (Greiner Bio-One, Frickenhausen, Germany). From there, 50 nl were transferred in a dark test plate (Greiner Bio-One, Frickenhausen, Germany). […] This was followed by a 10-minute incubation step at 22° C. for pre-equilibration of the putative complex between His-BCL-2 and the compounds.
The mixture was incubated in the dark for one hour at 22° C. and then overnight at 4° C.
(§3) The resulting data (ratio) were normalized, taking 0% inhibition as the mean value of control measurements (usually 32 data points) where all reagents were included. In this case 50 nl DMSO were used instead of compounds. […] IC50 values were determined by regression analysis based on a 4 parameter equation (minimum, maximum, IC50, Hill; Y=Max+(Min−Max)/(1+(X/IC50)^Hill) using the Screener Software (Genedata).

BCL-XL = BCL-XL (Homo sapiens (Human), UniProt Q07817); assay: Protein-protein interaction assay BCL-XL/Bad BH3 peptide (BCL-XL Assay, TR-FRET); assay type: binding; conditions: read-out: BCL-XL Assay IC50 (median)
Sequence of BCL-XL (Q07817 other isoform, or with tags, fused parts or gaps): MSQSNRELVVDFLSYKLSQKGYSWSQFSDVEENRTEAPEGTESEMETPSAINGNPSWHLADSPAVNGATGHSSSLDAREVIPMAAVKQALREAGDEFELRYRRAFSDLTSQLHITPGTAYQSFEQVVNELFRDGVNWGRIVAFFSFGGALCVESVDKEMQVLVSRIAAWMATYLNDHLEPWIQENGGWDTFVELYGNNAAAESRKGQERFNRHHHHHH
Procedure: Assay 2 Protein-Protein Interaction Assay: BCL-XL/Bad BH3 Peptide (BCL-XL Assay)
The dose-dependent inhibition by the compounds described in this invention of the interaction between BCL-XL and the BH3 domain of Bad (both human) was determined using a steady state binding competition assay with time-resolved fluorescence energy transfer (TR-FRET) readout.
as §2, with “His-BCL-XL” for “His-BCL-2”
The mixture was incubated in the dark for one hour at 22° C. and then overnight at 4° C. The formation of BCL-XL/Bad complexes was determined by measuring the resonance energy transfer of the anti-His- Eu-cryptate antibody to the streptavidin-XL665 present in the reaction.
as §3

HMC-1-8 = assay: Antiproliferation assay 7, HMC-1-8; assay type: cell-based; conditions: HMC-1-8 cells, CellTiter-Glo, read-out: Antiproli HMC-1-8 IC50 median
Outline: as §1

Row | SMILES | pIC50 (SUDHL5; 72 hours) | pIC50 (BCL-2) | pIC50 (BCL-XL) | pIC50 (HMC-1-8; 72 hours) | pIC50 (SUDHL5; Homo sapiens, SU-DHL-5, 72 h) | pIC50 (HMC-1-8; 72 h)
1 | Cc1c2c(nn1C)N(C)CCCCCn1c(C(=O)O)c(CCCOc3cccc4cc(F)ccc34)c3ccc(Cl)c-2c31 [Example 75, (+)-4-chloro-7-{3-[(6-fluoronaphthalen-1-yl)oxy]propyl}-2,3,15-trimethyl-10,11,12,13,14,15-hexahydro-2H-pyrazolo[4′,3′:4,5][1,6]diazacycloundecino[3,2,1-hi]indole-8-carboxylic acid-N-ethylethanamine salt] | 6.28 | 4.72 | < 4.70 | 5.47 | – | –
2 | Cc1c2c(nn1C)N(C)CCCCCn1c(C(=O)O)c(CCCOc3cccc4ccccc34)c3ccc(Cl)c-2c31 (racemic) [Example 71, (rac)-4-chloro-2,3,15-trimethyl-7-{3-[(naphthalen-1-yl)oxy]propyl}-10,11,12,13,14,15-hexahydro-2H-pyrazolo[4′,3′:4,5][1,6]diazacycloundecino[3,2,1-hi]indole-8-carboxylic acid] | – | < 4.70 | < 4.70 | – | 5.70 | 4.66
3 | Cc1c2c(nn1C)N(C)CCCCCn1c(C(=O)O)c(CCCOc3cccc4cc(F)ccc34)c3ccc(Cl)c-2c31 (racemic) [Example 74, (rac)-4-chloro-7-{3-[(6-fluoronaphthalen-1-yl)oxy]propyl}-2,3,15-trimethyl-10,11,12,13,14,15-hexahydro-2H-pyrazolo[4′,3′:4,5][1,6]diazacycloundecino[3,2,1-hi]indole-8-carboxylic acid] | 6.09 | 4.72 | < 4.70 | 5.27 | – | –
4 | CCc1c2c(nn1C)N(C)CCCCCn1c(C(=O)O)c(CCCOc3cccc4cc(F)ccc34)c3ccc(Cl)c-2c31 (single isomer, unassigned; enantiomer 1) [Example 78, 4-chloro-3-ethyl-7-{3-[(6-fluoronaphthalen-1-yl)oxy]propyl}-2,15-dimethyl-10,11,12,13,14,15-hexahydro-2H-pyrazolo[4′,3′:4,5][1,6]diazacycloundecino[3,2,1-hi]indole-8-carboxylic acid-N-ethylethanamine Salt—Enantiomer 1] | – | < 4.70 | < 4.70 | 5.62 | 5.64 | –
